Experimental data reported in publication PMC7558522, “Click-Free Synthesis of a Multivalent Tricyclic Peptide as a Molecular Transporter” (Pharmaceutics, 2020).
In brackets after ≈: the same amount, converted by molar mass. Read-outs that look alike come from different tables or passages of the source. *1 amine or outer side, *2 acyl side, *3 side chain or, on linkers, in order; H or OH if unused. Where a SMILES comes first, the peptide text is derived from it. Bridges are numbered along the chain shown (N, C = ends). Roman numbers before positions name the chains, in order. Suc = O=C(CCC(=O)[*:2])[*:1]

What was measured:
E. coli (ATCC 25922) = assay: microbe, parasite or virus in culture; type: cell-based, Escherichia coli
Protocol: (§1) The selected strains of bacteria, MRSA (Los Angeles County (LAC) clone), E. coli (ATCC 25922), Pseudomonas aeruginosa (ATCC 27883), and Klebsiella pneumoniae (ATCC BAA 1705) were cultured according to the guidelines of the Clinical Laboratory Standards Institute (CLSI) guidelines. MIC values were determined using microbroth dilution assay. Tricyclic peptide 20 was used to evaluate antibacterial activity in comparison to positive controls, such as Meropenem for Gram-negative bacteria and c[R4W4] for Gram-positive bacteria. Bacterial strains were inoculated into LB (5 mL) and shaken in an orbital shaker at 175 rpm overnight at 37 °C. The cultured suspension was immediately diluted to get turbidity of 0.5 McFarland (1.5 × 10^8 bacterial cell CFU/mL) using normal saline. The test compounds (tricyclic peptide 20, Meropenem, and c[R4W4]) were dissolved in 5% dimethyl sulfoxide (DMSO) to generate 256 µg/mL solutions. 200 µL of tricyclic peptide 20, and controls were added to the first column of the 96 well plates, and a twofold serial dilution was performed with the addition of 100 µL of bacterial culture media to the other wells. […] Bacterial solution (100 µL) was added to all the wells and incubated statically at 37 °C overnight. The minimum concentration at which bacterial growth was not visible to eyes were reported as MICs and experiments were performed in triplicate.

MRSA (LAC Clone) = assay: microbe, parasite or virus in culture; type: cell-based, Methicillin-resistant Staphylococcus aureus
Protocol: as §1

[1] = test system: Pseudomonas aeruginosa (ATCC 27883); assay: microbe, parasite or virus in culture; type: cell-based
Protocol: as §1

[2] = test system: Klebsiella pneumoniae (ATCC BAA 1705); assay: microbe, parasite or virus in culture; type: cell-based
Protocol: as §1

[3] = test system: MRSA, Klebsiella pneumoniae, Pseudomonas aeruginosa, and E. coli; type: cell-based; conditions: range over the four strains, microbroth dilution
Protocol: as §1

MDA-MB-231 cells = type: cell-based, Human
Protocol: Human breast cancer (MDA-MB-231) cell line was grown on 75 cm^2 cell culture flasks with Dulbecco’s modified eagle’s medium (DMEM) medium, supplemented with 10% fetal bovine serum (FBS), and 1% penicillin-streptomycin solution (10,000 units of penicillin and 10 mg of streptomycin in 0.9% NaCl) in a humidified atmosphere of 5% CO2, 95% air at 37 °C. CellTiter 96® Aqueous (Promega, Madison, WI, USA) one solution cell proliferation assay (MTS) was utilized to evaluate MDA-MB-231 cell viability. Cells were seeded into 96-well plate (10^4 cells/100 μL) in complete media and incubated overnight at 37 °C with 5% CO2. Different concentrations (0−300 μM) of the peptide solution (10 μL) were added to wells to make the final concentrations of the peptide (0−30 μM). The cells were incubated again (37 °C, 5% CO2) for 24 h, then MTS reagent (20 μL) was added to each well followed by incubation for 2 h under the same condition. The absorbance of the resulting solution was evaluated at 490 nm using a microplate reader to detect the live cells. Cells without peptide were considered as a control. DMSO (30% v/v) was used as a positive control. The compound was used in aqueous solution. All the tests were performed in triplicate.

C[C@@H](O)[C@H]1C(=O)N2C(C(=O)O)=C(S[C@@H]3CN[C@H](C(=O)N(C)C)C3)[C@H](C)[C@H]12 [Meropenem]
MIC (E. coli (ATCC 25922); Escherichia coli, ATCC25922, microbroth dilution, incubated overnight at 37 °C, growth not visible to eyes, performed in triplicate, read-out: MIC): 8 µg/mL (≈ 20.9 µM)
MIC (MRSA (LAC Clone); Staphylococcus aureus, MRSA, microbroth dilution, incubated overnight at 37 °C, growth not visible to eyes, performed in triplicate, read-out: MIC): 4 µg/mL (≈ 10.4 µM)
MIC ([1]; Pseudomonas aeruginosa, ATCC27883, microbroth dilution, incubated overnight at 37 °C, growth not visible to eyes, performed in triplicate, read-out: MIC): 1 µg/mL (≈ 2.61 µM)
MIC ([2]; Klebsiella pneumoniae, BAA1705, microbroth dilution, incubated overnight at 37 °C, growth not visible to eyes, performed in triplicate, read-out: MIC): 32 µg/mL (≈ 83.4 µM)

N=C(N)NCCC[C@@H]1NC(=O)[C@H](Cc2c[nH]c3ccccc23)NC(=O)[C@H](CCCNC(=N)N)NC(=O)[C@H](Cc2c[nH]c3ccccc23)NC(=O)[C@H](CCCCNC(=O)CCC(=O)NCCCC[C@@H]2NC(=O)[C@H](CCCNC(=N)N)NC(=O)[C@H](Cc3c[nH]c4ccccc34)NC(=O)[C@H](CCCNC(=N)N)NC(=O)[C@H](Cc3c[nH]c4ccccc34)NC(=O)[C@H](CCCNC(=N)N)NC(=O)[C@H](Cc3c[nH]c4ccccc34)NC(=O)[C@H](CCCNC(=N)N)NC(=O)[C@H](Cc3c[nH]c4ccccc34)NC2=O)NC(=O)[C@H](CCCNC(=N)N)NC(=O)[C@H](Cc2c[nH]c3ccccc23)NC(=O)[C@H](CCCNC(=N)N)NC(=O)[C@H](Cc2c[nH]c3ccccc23)NC(=O)[C@H](CCCCNC(=O)CCC(=O)NCCCC[C@@H]2NC(=O)[C@H](CCCNC(=N)N)NC(=O)[C@H](Cc3c[nH]c4ccccc34)NC(=O)[C@H](CCCNC(=N)N)NC(=O)[C@H](Cc3c[nH]c4ccccc34)NC(=O)[C@H](CCCNC(=N)N)NC(=O)[C@H](Cc3c[nH]c4ccccc34)NC(=O)[C@H](CCCNC(=N)N)NC(=O)[C@H](Cc3c[nH]c4ccccc34)NC2=O)NC1=O [Tricyclic peptide 20] (I: cyclo(KWRWRKWRWR) / II: cyclo(KWRWRWRWR) / III: cyclo(KWRWRWRWR); linker I:1-III:1, I:6-II:1 via Suc)
MIC (range over MRSA, K. pneumoniae, P. aeruginosa, E. coli) [3]: 64 to 128 µg/mL
cell viability (MDA-MB-231 cells; 25 µM): more than 97%
cell viability (MDA-MB-231 cells; 30 µM): 92%
MIC (E. coli (ATCC 25922); ATCC 25922): 64 µg/mL (≈ 13.4 µM)
MIC (MRSA (LAC Clone); LAC Clone): 64 µg/mL (≈ 13.4 µM)
MIC ([1]; ATCC 27883): 128 µg/mL (≈ 26.7 µM)
MIC ([2]; ATCC BAA 1705): 128 µg/mL (≈ 26.7 µM)

N=C(N)NCCC[C@@H]1NC(=O)[C@H](CCCNC(=N)N)NC(=O)[C@H](CCCNC(=N)N)NC(=O)[C@H](Cc2c[nH]c3ccccc23)NC(=O)[C@H](Cc2c[nH]c3ccccc23)NC(=O)[C@H](Cc2c[nH]c3ccccc23)NC(=O)[C@H](Cc2c[nH]c3ccccc23)NC(=O)[C@H](CCCNC(=N)N)NC1=O [c[R4W4]] (cyclo(RRRRWWWW))
MIC (E. coli (ATCC 25922); ATCC 25922): 16 µg/mL (≈ 11.7 µM)
MIC (MRSA (LAC Clone); LAC Clone): 4 µg/mL (≈ 2.92 µM)
MIC ([1]; ATCC 27883): 64 µg/mL (≈ 46.7 µM)
MIC ([2]; ATCC BAA 1705): 32 µg/mL (≈ 23.4 µM)
